This is an account of results in patent US6890959B2, “Aminomethyl-phenyl-cyclohexanone derivatives” (Gruenenthal GmbH, priority 2000, dated 2005).

Counter-ions that a name gives are not always drawn.

In the test the test system is Male NMRI mice. The test is described as follows: phenylquinone-induced writhing test in mice. Type of test: in vivo. The conditions noted are these: 10 mg/kg i.v.; phenylquinone i.p. 10 minutes after compound; writhing counted 5-20 minutes after phenylquinone. Here is the method:
The antinociceptive activity of the compounds according to the invention was investigated in mice in a phenylquinone-induced writhing test, as modified by I. C. Hendershot, J. Forsaith, J. Pharmacol. Exp. Ther. 125, 237-240 (1959). Male NMRI mice weighing 25-30 g were used. Groups of 10 animals per substance dose received 0.3 ml/mouse of a 0.02% aqueous solution of phenylquinone (phenylbenzoquinone, Sigma, Deisenhofen; preparation of the solution with the addition of 5% ethanol and storage in a water bath at 45° C.) administered intraperitoneally 10 minutes after intravenous administration of a compound according to the invention. The animals were placed individually in observation cages. The number of pain-induced stretching movements (so-called writhing reactions, i.e. straightening of the body with stretching of the hind extremities) was counted by means of a push-button counter for 5-20 minutes after the administration of phenylquinone. Animals which received physiological saline solution i.v. and […]. were also used as a control.
All substances were tested in a standard dose of 10 mg/kg. The percentage inhibition (% inhibition) of the writhing reactions by a substance was calculated according to the following equation: % inhibition=100−[WR treated animals/WR control×100]
Background: Writhing tests count abdominal constrictions after an irritant is injected.
“rac-trans-[4-dimethylaminomethyl-3-(3-methoxy-phenyl)-cyclohexanone]hydrochloride [Compound 3]”: the “% inhibition of the writhing reactions” value was 92%. Turning to `COc1cccc(C2CC(=O)CCC2CN(C)C)c1` (racemic) [Compound 2, rac-cis-[4-Dimethylaminomethyl-3-(3-methoxy-phenyl)-cyclohexanone]hydrochloride], the “% inhibition of the writhing reactions” value is on record as 96%. With “rac-cis-[4-Dimethylaminomethyl-3-(3-hydroxy-phenyl)-cyclohexanone [Compound 4]” the figure was 100%.
